Test results published in PubChem BioAssay (NCI).
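GI50: concentration for 50% inhibition of growth. TGI is the concentration that stops growth completely.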

What was measured:
Experiment in all cases: NCI anticancer screen, dose series, 384-well format
[1] = test system: EKVX NSCLC
[2] = test system: HT29 colon
[3] = test system: SNB-75 CNS
[4] = test system: OVCAR-8 ovarian
[5] = test system: OVCAR-4 ovarian
[6] = test system: CCRF-CEM leukemia
[7] = test system: SK-MEL-5 melanoma
[8] = test system: NCI-H522 lung
[9] = test system: K-562 leukemia
[10] = test system: KM12 colon
[11] = test system: NCI-H322M lung
[12] = test system: HCC-2998 colon
[13] = test system: HS 578T breast
[14] = test system: SK-MEL-28 melanoma
[15] = test system: U251 glioblastoma
[16] = test system: A549 NSCLC
[17] = test system: 786-0 renal
[18] = test system: HCT-116 colon
[19] = test system: DU-145 prostate
[20] = test system: MDA-MB-231 breast
[21] = test system: SF-539 CNS
[22] = test system: MALME-3M melanoma
[23] = test system: MCF7 breast
[24] = test system: COLO 205 colon
[25] = test system: HOP-62 NSCLC
[26] = test system: M14 melanoma
[27] = test system: CAKI-1 renal
[28] = test system: UACC-257 melanoma
[29] = test system: MDA-MB-435 melanoma
[30] = test system: NCI-H460 NSCLC
[31] = test system: SF-268 CNS
[32] = test system: ACHN renal
[33] = test system: LOX IMVI melanoma
[34] = test system: UACC-62 melanoma
[35] = test system: PC-3 prostate
[36] = test system: UO-31 renal
[37] = test system: SR leukemia
[38] = test system: NCI/ADR-RES ovarian
[39] = test system: SW-620 colon
[40] = test system: HL-60(TB) leukemia
[41] = test system: HOP-92 NSCLC
[42] = test system: BT-549 breast
[43] = test system: OVCAR-3 ovarian
[44] = test system: RXF 393 renal
[45] = test system: SK-OV-3 ovarian
[46] = test system: HCT-15 colon
[47] = test system: TK-10 renal
[48] = test system: SF-295 CNS
[49] = test system: A498 renal
[50] = test system: NCI-H226 lung
[51] = test system: IGROV1 ovarian
[52] = test system: NCI-H23 lung
[53] = test system: T-47D breast
[54] = test system: RPMI-8226 leukemia
[55] = test system: MDA-MB-468 breast
[56] = test system: SN12C renal
[57] = test system: OVCAR-5 ovarian
[58] = test system: MOLT-4 leukemia
[59] = test system: SNB-19 CNS

Molecule `CCCCCCCCCCCCCCCC(=O)Nc1ccn([C@@H]2O[C@H](CO)[C@@H](O)[C@@H]2C#N)c(=O)n1` has a GI50 [1] of 28.4 µM, a TGI [1] of over 100 µM and a GI50 [2] of 12.5 µM. It also gave a TGI [2] of over 100 µM, a GI50 [3] of 4.66 µM and a TGI [3] of 52.5 µM. It also gave a GI50 [4] of 0.292 µM, a TGI [4] of 18.4 µM and a GI50 [5] of 28.1 µM. It also gave a TGI [5] of over 100 µM, a TGI [6] of 0.12 µM and a GI50 [7] of 7.71 µM. The TGI [7] was 21 µM, the GI50 [8] was 6.11 µM and the TGI [8] was 23.4 µM. It also gave a GI50 [9] of 2.52 µM, a TGI [9] of 17.7 µM and a GI50 [10] of 6.5 µM. For the same molecule, the TGI [10] was 35.2 µM, the GI50 [11] was 14.6 µM and the TGI [11] was 31 µM. It also gave a GI50 [12] of 0.464 µM, a TGI [12] of 10.6 µM and a GI50 [13] of 1.58 µM. It also gave a TGI [13] of 20.4 µM, a GI50 [14] of 6.96 µM and a TGI [14] of 30.1 µM. For the same molecule, the GI50 [15] was 0.314 µM, the TGI [15] was 23.5 µM and the GI50 [16] was 1.32 µM. It also gave a TGI [16] of 20 µM, a GI50 [17] of 0.0598 µM and a TGI [17] of 29.8 µM. The GI50 [18] was 0.454 µM, the TGI [18] was 18.8 µM and the GI50 [19] was 0.751 µM. It also gave a TGI [19] of 21.7 µM, a GI50 [20] of 11.1 µM and a TGI [20] of over 100 µM. For the same molecule, the GI50 [21] was 4.82 µM, the TGI [21] was 38.3 µM and the GI50 [22] was 10.5 µM. It also gave a TGI [22] of 28 µM, a GI50 [23] of 1.33 µM and a TGI [23] of 24.3 µM. The GI50 [24] was 0.325 µM, the TGI [24] was over 100 µM and the GI50 [25] was 0.0542 µM. The TGI [25] was 18.5 µM, the GI50 [26] was 3 µM and the TGI [26] was 22.4 µM. For the same molecule, the GI50 [27] was 2.44 µM, the TGI [27] was 43.6 µM and the GI50 [28] was 20.1 µM. For the same molecule, the TGI [28] was 74.6 µM, the GI50 [29] was 28.1 µM and the TGI [29] was over 100 µM. It also gave a GI50 [30] of 0.143 µM, a TGI [30] of 10.1 µM and a GI50 [31] of 0.43 µM. The TGI [31] was 19.9 µM, the GI50 [32] was 0.988 µM and the TGI [32] was 39.1 µM. It also gave a GI50 [33] of 3.42 µM, a TGI [33] of 17.7 µM and a GI50 [34] of 0.655 µM. For the same molecule, the TGI [34] was 23.5 µM, the GI50 [35] was 13.3 µM and the TGI [35] was 92.5 µM. It also gave a GI50 [36] of 11.7 µM, a TGI [36] of 45.7 µM and a GI50 [37] of 0.139 µM. It also gave a TGI [37] of 0.339 µM, a GI50 [38] of 11.1 µM and a TGI [38] of over 100 µM. It also gave a GI50 [39] of 4.81 µM, a TGI [39] of over 100 µM and a GI50 [40] of 0.368 µM. For the same molecule, the TGI [40] was 1.4 µM, the GI50 [41] was 4.71 µM and the TGI [41] was 35.3 µM. The GI50 [42] was 5.56 µM, the TGI [42] was 24.2 µM and the GI50 [43] was 10.3 µM. It also gave a TGI [43] of 37.9 µM, a GI50 [44] of 16.6 µM and a TGI [44] of over 100 µM. It also gave a GI50 [45] of 1.15 µM, a TGI [45] of 39.1 µM and a GI50 [46] of 0.946 µM. The TGI [46] was 66.9 µM, the GI50 [47] was 34.8 µM and the TGI [47] was over 100 µM. For the same molecule, the GI50 [48] was 0.716 µM, the TGI [48] was over 100 µM and the GI50 [49] was 0.74 µM. The TGI [49] was 15.8 µM, the GI50 [50] was 13.3 µM and the TGI [50] was 54.9 µM. The GI50 [51] was 12.7 µM, the TGI [51] was 86 µM and the GI50 [52] was 0.244 µM. For the same molecule, the TGI [52] was 15.5 µM, the GI50 [53] was 35.1 µM and the TGI [53] was over 100 µM. It also gave a GI50 [54] of 4.4 µM and a TGI [54] of 20.6 µM.

`CC(C)(C(=O)NCC(F)(F)C(F)(F)F)C(=O)N[C@@H]1C(=O)Nc2ccccc2-c2ccccc21` showed a GI50 [1] of 29 µM, a TGI [1] of over 100 µM and a GI50 [2] of 37.2 µM. It also gave a TGI [2] of over 100 µM, a GI50 [3] of 63.6 µM and a TGI [3] of over 100 µM. The GI50 [4] was 69.9 µM, the TGI [4] was over 100 µM and the TGI [55] was 33.3 µM. It also gave a GI50 [5] of 17.5 µM, a TGI [5] of 76.3 µM and a GI50 [6] of 18.6 µM. It also gave a TGI [6] of 69.8 µM, a GI50 [7] of 39.1 µM and a TGI [7] of over 100 µM. It also gave a GI50 [8] of 42.4 µM, a TGI [8] of over 100 µM and a GI50 [9] of 44.8 µM. For the same molecule, the TGI [9] was over 100 µM, the GI50 [10] was 53.2 µM and the TGI [10] was over 100 µM. The GI50 [11] was over 100 µM, the TGI [11] was over 100 µM and the GI50 [12] was 24 µM. It also gave a TGI [12] of over 100 µM, a GI50 [13] of 32 µM and a TGI [13] of over 100 µM. For the same molecule, the GI50 [14] was 46.9 µM, the TGI [14] was over 100 µM and the GI50 [15] was over 100 µM. It also gave a TGI [15] of over 100 µM, a GI50 [16] of 33.6 µM and a TGI [16] of over 100 µM. It also gave a GI50 [17] of 58.5 µM, a TGI [17] of over 100 µM and a GI50 [19] of 55.9 µM. For the same molecule, the TGI [19] was over 100 µM, the GI50 [20] was 51.2 µM and the TGI [20] was over 100 µM. The GI50 [21] was over 100 µM, the TGI [21] was over 100 µM and the GI50 [22] was 22.2 µM. For the same molecule, the TGI [22] was over 100 µM, the GI50 [23] was 22 µM and the TGI [23] was over 100 µM. The GI50 [24] was 44.6 µM, the TGI [24] was over 100 µM and the GI50 [25] was 74.6 µM. The TGI [25] was over 100 µM, the GI50 [26] was 89.2 µM and the TGI [26] was over 100 µM. It also gave a GI50 [56] of over 100 µM, a TGI [56] of over 100 µM and a GI50 [27] of over 100 µM. For the same molecule, the TGI [27] was over 100 µM, the GI50 [57] was over 100 µM and the TGI [57] was over 100 µM. It also gave a GI50 [29] of 92.7 µM, a TGI [29] of over 100 µM and a GI50 [30] of 46 µM. It also gave a TGI [30] of over 100 µM, a GI50 [58] of 11.5 µM and a TGI [58] of 25.6 µM. It also gave a GI50 [31] of over 100 µM, a TGI [31] of over 100 µM and a GI50 [32] of 54.8 µM. It also gave a TGI [32] of over 100 µM, a GI50 [33] of over 100 µM and a TGI [33] of over 100 µM. It also gave a GI50 [34] of 20.4 µM, a TGI [34] of over 100 µM and a GI50 [35] of 41.2 µM. For the same molecule, the TGI [35] was over 100 µM, the GI50 [36] was 74.6 µM and the TGI [36] was over 100 µM. It also gave a GI50 [37] of 23.3 µM, a TGI [37] of over 100 µM and a GI50 [38] of 30 µM. For the same molecule, the TGI [38] was over 100 µM, the GI50 [39] was over 100 µM and the TGI [39] was over 100 µM. The GI50 [41] was 32.5 µM, the TGI [41] was over 100 µM and the GI50 [59] was 63.5 µM. For the same molecule, the TGI [59] was over 100 µM, the GI50 [42] was 39.2 µM and the TGI [42] was over 100 µM. It also gave a GI50 [43] of 36.3 µM, a TGI [43] of over 100 µM and a GI50 [44] of 27.3 µM. It also gave a TGI [44] of over 100 µM, a GI50 [45] of 90.8 µM and a TGI [45] of over 100 µM. It also gave a GI50 [46] of 43.3 µM, a TGI [46] of over 100 µM and a GI50 [47] of 88.7 µM. The TGI [47] was over 100 µM, the GI50 [48] was 52.5 µM and the TGI [48] was over 100 µM. The GI50 [49] was 47 µM, the TGI [49] was over 100 µM and the GI50 [50] was 45.8 µM. For the same molecule, the TGI [50] was over 100 µM, the GI50 [51] was 92.1 µM and the TGI [51] was over 100 µM. For the same molecule, the GI50 [52] was 41.1 µM, the TGI [52] was over 100 µM and the GI50 [53] was 6.31 µM. It also gave a TGI [53] of 48.1 µM, a GI50 [54] of 18.8 µM and a TGI [54] of 76.4 µM.
